The text below walks through data of patent publication US20240139158A1, “METHODS OF TREATING PULMONARY DISEASES AND DISORDERS” (Proteostasis Therapeutics, Inc., priority 2015, published 2024).

The assay concerns the target T1, CFTR, genotype Non-CF (“wild-type”/“wild-type”) (Homo sapiens, UniProt P13569).
T1 construct: Non-CF; endogenous in cells
As to the kind of experiment: Activity by CFTR genotype with compound A (Example 79, Table 2). Type of assay: cell-based. Particulars: Relative Activity of 100% = Vehicle treated, 10 uM. The protocol: Table 2 indicates mutation type and activity with compounds/combination with compound A. ## indicates activity at 30 uM of 50% to <100% of the indicated relative activity treatment, #### indicates activity at 30 uM of ≥150% of the indicated relative activity treatment, + indicates activity at 10 uM of 15% to <50% of the indicated relative activity treatment, ++ indicates activity at 10 uM of 50% to <100% of the indicated relative activity treatment, +++ indicates activity at 10 uM of 100% to <150% of the indicated relative activity treatment, ++++ indicates activity at 10 uM of >150% of the indicated relative activity treatment. NB124 is used at 250 ug/ml, ivacaftor is used at 1 uM, lumacaftor is used at 3 uM, and VX-661 is used at 3 uM.

T1 sequence (P13569 whole entry): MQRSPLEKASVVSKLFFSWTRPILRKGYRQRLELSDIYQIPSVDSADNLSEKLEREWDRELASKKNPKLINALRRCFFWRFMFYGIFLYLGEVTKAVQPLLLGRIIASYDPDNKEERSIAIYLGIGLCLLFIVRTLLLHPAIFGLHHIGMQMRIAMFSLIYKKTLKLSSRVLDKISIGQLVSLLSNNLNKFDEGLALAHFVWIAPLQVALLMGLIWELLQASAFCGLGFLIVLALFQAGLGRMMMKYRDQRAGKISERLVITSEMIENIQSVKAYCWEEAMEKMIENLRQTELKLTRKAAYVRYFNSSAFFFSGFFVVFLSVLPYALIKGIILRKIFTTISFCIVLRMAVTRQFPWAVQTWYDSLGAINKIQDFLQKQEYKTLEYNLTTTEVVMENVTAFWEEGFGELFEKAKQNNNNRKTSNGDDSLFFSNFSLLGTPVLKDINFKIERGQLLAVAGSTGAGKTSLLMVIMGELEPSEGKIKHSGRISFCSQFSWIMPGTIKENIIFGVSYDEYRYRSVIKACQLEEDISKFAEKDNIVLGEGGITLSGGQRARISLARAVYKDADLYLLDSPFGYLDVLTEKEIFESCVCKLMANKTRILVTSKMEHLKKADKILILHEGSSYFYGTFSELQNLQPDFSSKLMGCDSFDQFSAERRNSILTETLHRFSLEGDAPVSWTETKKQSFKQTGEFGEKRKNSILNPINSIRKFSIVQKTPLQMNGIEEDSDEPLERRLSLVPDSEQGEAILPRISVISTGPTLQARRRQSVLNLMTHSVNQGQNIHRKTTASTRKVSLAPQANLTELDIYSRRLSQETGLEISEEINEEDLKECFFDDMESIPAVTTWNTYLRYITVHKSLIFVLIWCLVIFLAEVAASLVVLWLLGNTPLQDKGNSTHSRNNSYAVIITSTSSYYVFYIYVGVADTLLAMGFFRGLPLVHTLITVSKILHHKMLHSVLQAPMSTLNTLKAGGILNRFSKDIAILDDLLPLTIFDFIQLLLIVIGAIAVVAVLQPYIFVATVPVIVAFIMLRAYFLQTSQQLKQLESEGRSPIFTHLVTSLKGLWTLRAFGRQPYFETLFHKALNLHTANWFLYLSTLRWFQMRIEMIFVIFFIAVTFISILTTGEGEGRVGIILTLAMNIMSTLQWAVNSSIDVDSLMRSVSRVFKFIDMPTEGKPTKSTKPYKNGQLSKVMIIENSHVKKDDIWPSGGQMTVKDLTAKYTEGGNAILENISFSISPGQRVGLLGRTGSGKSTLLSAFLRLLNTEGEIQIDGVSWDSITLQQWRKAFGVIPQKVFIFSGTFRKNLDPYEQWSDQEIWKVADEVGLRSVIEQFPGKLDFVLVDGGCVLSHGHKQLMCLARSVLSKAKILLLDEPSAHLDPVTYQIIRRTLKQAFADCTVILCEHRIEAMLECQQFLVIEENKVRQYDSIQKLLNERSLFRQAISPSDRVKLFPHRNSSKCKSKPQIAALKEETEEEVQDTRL

Turning to `C[C@@H](O)c1nnc(C2CC(NC(=O)c3cc(-c4ccccc4)no3)C2)o1` (stereo partly shown) [Compound A], the “Stand Alone activity” value was “+++ (activity at 10 uM of 100% to <150% of the indicated relative activity treatment)”.
